These results are taken from PMC9732455, “PCW-A1001, AI-assisted de novo design approach to design a selective inhibitor for FLT-3(D835Y) in acute myeloid leukemia” (Frontiers in Molecular Biosciences, 2022).

One assay deals with T1, FLT-3 WT (Homo sapiens, UniProt P36888).
T1 construct: gene FLT3
T1 sequence (P36888 27-993): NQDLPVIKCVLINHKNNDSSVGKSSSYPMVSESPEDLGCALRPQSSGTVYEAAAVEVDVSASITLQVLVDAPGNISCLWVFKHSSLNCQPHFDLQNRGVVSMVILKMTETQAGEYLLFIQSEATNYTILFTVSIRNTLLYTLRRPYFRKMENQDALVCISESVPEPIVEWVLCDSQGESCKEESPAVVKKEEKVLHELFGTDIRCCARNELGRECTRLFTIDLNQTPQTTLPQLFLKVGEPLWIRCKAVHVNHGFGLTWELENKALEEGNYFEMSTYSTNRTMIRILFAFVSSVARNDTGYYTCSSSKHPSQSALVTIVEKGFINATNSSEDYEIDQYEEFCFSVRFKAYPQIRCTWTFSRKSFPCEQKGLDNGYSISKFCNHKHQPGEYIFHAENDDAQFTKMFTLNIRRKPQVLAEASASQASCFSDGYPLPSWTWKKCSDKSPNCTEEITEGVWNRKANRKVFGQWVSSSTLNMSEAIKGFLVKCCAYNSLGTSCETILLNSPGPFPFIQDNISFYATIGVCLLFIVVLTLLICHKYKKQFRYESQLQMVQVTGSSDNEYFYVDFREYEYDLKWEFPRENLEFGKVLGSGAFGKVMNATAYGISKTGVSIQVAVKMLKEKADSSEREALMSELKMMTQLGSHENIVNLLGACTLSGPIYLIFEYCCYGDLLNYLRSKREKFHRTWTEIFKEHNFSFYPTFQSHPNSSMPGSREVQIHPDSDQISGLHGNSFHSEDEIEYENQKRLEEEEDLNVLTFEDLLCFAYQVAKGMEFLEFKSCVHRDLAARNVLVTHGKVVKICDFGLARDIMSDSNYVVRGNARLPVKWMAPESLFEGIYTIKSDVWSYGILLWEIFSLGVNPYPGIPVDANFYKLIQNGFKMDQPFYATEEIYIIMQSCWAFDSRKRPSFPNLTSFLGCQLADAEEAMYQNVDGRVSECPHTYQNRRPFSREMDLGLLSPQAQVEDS
Description: in vitro kinase assay (ThermoFisher), dose-response. In kind it is biochemical.

The next assay deals with T2, FLT-3 (D835Y) (Homo sapiens, UniProt P36888, D835Y).
T2 construct: gene FLT3
T2 sequence (P36888 564-993 D835Y limits assumed): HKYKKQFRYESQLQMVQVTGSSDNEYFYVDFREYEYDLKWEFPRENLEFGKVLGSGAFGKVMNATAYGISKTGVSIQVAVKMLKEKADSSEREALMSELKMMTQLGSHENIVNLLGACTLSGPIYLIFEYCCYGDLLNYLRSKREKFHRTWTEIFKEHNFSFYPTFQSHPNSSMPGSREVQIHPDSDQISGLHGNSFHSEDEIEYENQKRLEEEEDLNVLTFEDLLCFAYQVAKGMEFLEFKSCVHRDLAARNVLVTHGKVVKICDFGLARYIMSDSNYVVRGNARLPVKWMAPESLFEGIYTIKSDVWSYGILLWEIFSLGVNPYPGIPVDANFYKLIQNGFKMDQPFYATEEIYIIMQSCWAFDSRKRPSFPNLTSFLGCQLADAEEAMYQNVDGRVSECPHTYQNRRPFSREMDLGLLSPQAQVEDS
Described as above. It counts as biochemical.

SMILES strings stand for the structures.

In general, IC50 refers to the concentration at which inhibition is half-maximal. Low readings indicate greater potency in that assay, high ones weaker potency in that assay. Regarding `CC(C)(C)c1ccc(C(=O)Nc2ccc(C(N)=O)c(NC3CCCNC3)c2)cc1` (centres unmarked) [PCW-A1001], the IC50 worked out at 2540 nM against FLT-3 WT and 764 nM against FLT-3 (D835Y).
